Experimental data: patent publication US11795378B2, “Iron control composition, make, and use in carbonate stimulation” (King Fahd University of Petroleum and Minerals, priority 2019, dated 2023)

What was measured:
[1] = Solubility and stability test of iron in concentrated HCl chelating agent formulations; assay type: physicochemical; conditions: 5 wt. % single chelating agent, 72° F. (22.2° C.)
Description: The solubility test was conducted at varying HCl and chelating agent concentrations. During the solubility test the concentration of HCl was set to either 20 wt. % (low) or 28 wt. % (high) concentration.
Each chelating agent was used alone with varied concentrations ranging from 1 to 10 wt %.
To the evaluate the capability of the generated formulation to sustain the iron in the solution without precipitation, 3000 ppm of iron was dissolved in the respective formulations, and, after that, the stability of the formulation as function of time was evaluated.
The effect of the pH on the performance of exemplary inventive formulations was evaluated by repeating the solubility and stability tests at varied pH values.

[2] = 5% chelating agent, 3000 ppm ferric ions; cited from earlier work
[3] = 20 wt. % HCl, 3000 ppm iron, 96 hours
[4] = 28 wt. % HCl at pH 5, 3000 ppm ferric ions, after 96 hours

| iron precipitation during stability evaluation [1, 3] | iron precipitation during stability evaluation [1, 4] | SMILES | pH up to which ferric ions are kept in solution [2] |
| --- | --- | --- | --- |
| no precipitation | precipitation | O=C(O)CC[C@@H](C(=O)O)N(CC(=O)O)CC(=O)O [GLDA, glutamic acid N,N-diacetic acid] | less than 3.0 |
| no precipitation | precipitation | O=C(O)CN(CCO)CCN(CC(=O)O)CC(=O)O [HEDTA, hydroxyethyl ethylenediamine triacetic acid] |  |
